Results from patent publication US20050054006A1, “Combinatorial fluorescent library based on the styryl scaffold” (New York University, priority 2003, published 2005).

Experiment: Fluorescence excitation/emission of the styryl dye library compounds
Format: physicochemical
Details: EX/EM peak no. 1

In order of rising “EM(nm)” value:
1. CCc1ccc(/C=C/c2c[nH]c3ccccc23)[n+](C)c1.[I-] [Compound E24]  510 nm
2. COc1ccccc1C=Cc1cc[n+](C)c(Br)c1.[I-] [Compound F9]  520 nm
3. Cc1cccc(C=Cc2ccc(OCc3ccccc3)c(OCc3ccccc3)c2)[n+]1C.[I-] [Compound L12]  520 nm
4. COc1ccc2c(ccc(C=Cc3ccc(OC)c(O)c3)[n+]2C)c1.[I-] [Compound I15]  520 nm
5. COc1ccc(C=Cc2cccc[n+]2C)c2ccccc12.[I-] [Compound C14]  530 nm
6. C(=Cc1ccc(OCc2ccccc2)c(OCc2ccccc2)c1)c1cc[n+](C23CC4CC(CC(C4)C2)C3)cc1.[Br-] [Compound B12]  530 nm
7. CCc1ccc(C=Cc2cccc3ccccc23)[n+](C)c1.[I-] [Compound E32]  560 nm
8. Brc1ccc(C=Cc2cc[n+](C34CC5CC(CC(C5)C3)C4)cc2)cc1.[Br-] [Compound B5]  570 nm
9. COc1ccc(C=Cc2cccc(C)[n+]2C)cc1O.[I-] [Compound L15]  570 nm
10. COc1cc(OC)c(OC)cc1C=Cc1cccc[n+]1C.[I-] [Compound C38]  580 nm
11. COc1cc(C=Cc2cc[n+](C)c(-c3cc(C)ccn3)c2)cc(OC)c1OC.[I-] [Compound J13]  590 nm
12. CC(=O)Nc1ccc(C=Cc2cc[n+](C)cc2)cc1.[I-] [Compound A18]  610 nm
13. CN(C)c1ccc(C=Cc2cc[n+](C)c(Br)c2)cc1.[I-] [Compound F19]  610 nm
14. C[n+]1ccccc1C=Cc1ccccn1.[I-] [Compound C40]  610 nm
15. C(=Cc1c2ccccc2cc2ccccc12)c1cc[n+](C23CC4CC(CC(C4)C2)C3)cc1.[Br-] [Compound B34]  610 nm
16. CCc1ccc(C=Cc2ccccn2)[n+](C)c1.[I-] [Compound E40]  610 nm
17. Cc1cccc(/C=C/c2ccccn2)[n+]1C.[I-] [Compound L40]  620 nm
18. COc1cc(C=Cc2cc[n+](C)c3ccccc23)cc(OC)c1OC.[I-] [Compound G13]  620 nm
19. Cc1cccc(C=Cc2ccc(N(C)C)c3ccccc23)[n+]1C.[I-] [Compound L27]  620 nm
20. Cc1ccnc(-c2cc(C=Cc3c4ccccc4cc4ccccc34)cc[n+]2C)c1.[I-] [Compound J34]  630 nm
21. C[n+]1ccc(C=Cc2ccccn2)cc1Br.[I-] [Compound F40]  640 nm
22. C[n+]1ccc(C=Cc2ccc3ccc4cccc5ccc2c3c45)c2ccccc21.[I-] [Compound G41]  660 nm
23. CN(C)c1ccc(/C=C/C=C/c2cc[n+](C)c3ccccc23)cc1.[I-] [Compound G37]  670 nm
24. Cc1ccnc(-c2cc(C=Cc3ccc(N(C)C)c4ccccc34)cc[n+]2C)c1.[I-] [Compound J27]  670 nm
25. Cc1cccc(C=C/C=C/c2ccc(N(C)C)cc2)[n+]1C.[I-] [Compound L37]  680 nm
26. C[n+]1ccc(C=CC=Cc2ccccc2[N+](=O)[O-])cc1.[I-] [Compound A36]  700 nm
27. Cc1ccnc(-c2cc(C=CC=Cc3ccc(N(C)C)cc3)cc[n+]2C)c1.[I-] [Compound J37]  730 nm

In order of rising “EX(nm)” value:
1. COc1ccc2c(ccc(C=Cc3ccc(OC)c(O)c3)[n+]2C)c1.[I-] [Compound I15]  360 nm
2. Cc1cccc(/C=C/c2ccccn2)[n+]1C.[I-] [Compound L40]  380 nm
3. Brc1ccc(C=Cc2cc[n+](C34CC5CC(CC(C5)C3)C4)cc2)cc1.[Br-] [Compound B5]  385 nm
4. Cc1cccc(C=Cc2ccc(OCc3ccccc3)c(OCc3ccccc3)c2)[n+]1C.[I-] [Compound L12]  390 nm
5. COc1ccc(C=Cc2cccc[n+]2C)c2ccccc12.[I-] [Compound C14]  390 nm
6. COc1ccc(C=Cc2cccc(C)[n+]2C)cc1O.[I-] [Compound L15]  390 nm
7. C[n+]1ccccc1C=Cc1ccccn1.[I-] [Compound C40]  390 nm
8. CCc1ccc(C=Cc2ccccn2)[n+](C)c1.[I-] [Compound E40]  390 nm
9. COc1ccccc1C=Cc1cc[n+](C)c(Br)c1.[I-] [Compound F9]  400 nm
10. CCc1ccc(C=Cc2cccc3ccccc23)[n+](C)c1.[I-] [Compound E32]  420 nm
11. CC(=O)Nc1ccc(C=Cc2cc[n+](C)cc2)cc1.[I-] [Compound A18]  420 nm
12. COc1cc(C=Cc2cc[n+](C)c3ccccc23)cc(OC)c1OC.[I-] [Compound G13]  420 nm
13. COc1cc(OC)c(OC)cc1C=Cc1cccc[n+]1C.[I-] [Compound C38]  420 nm
14. C[n+]1ccc(C=CC=Cc2ccccc2[N+](=O)[O-])cc1.[I-] [Compound A36]  430 nm
15. Cc1ccnc(-c2cc(C=Cc3c4ccccc4cc4ccccc34)cc[n+]2C)c1.[I-] [Compound J34]  430 nm
16. CCc1ccc(/C=C/c2c[nH]c3ccccc23)[n+](C)c1.[I-] [Compound E24]  430 nm
17. Cc1cccc(C=Cc2ccc(N(C)C)c3ccccc23)[n+]1C.[I-] [Compound L27]  430 nm
18. Cc1ccnc(-c2cc(C=Cc3ccc(N(C)C)c4ccccc34)cc[n+]2C)c1.[I-] [Compound J27]  460 nm
19. C(=Cc1c2ccccc2cc2ccccc12)c1cc[n+](C23CC4CC(CC(C4)C2)C3)cc1.[Br-] [Compound B34]  460 nm
20. Cc1cccc(C=C/C=C/c2ccc(N(C)C)cc2)[n+]1C.[I-] [Compound L37]  480 nm
21. C[n+]1ccc(C=Cc2ccc3ccc4cccc5ccc2c3c45)c2ccccc21.[I-] [Compound G41]  500 nm
22. CN(C)c1ccc(/C=C/C=C/c2cc[n+](C)c3ccccc23)cc1.[I-] [Compound G37]  530 nm
23. C[n+]1ccc(C=Cc2ccccn2)cc1Br.[I-] [Compound F40]  540 nm

For `Cc1ccnc(-c2cc(C=CC=Cc3ccc(N(C)C)cc3)cc[n+]2C)c1.[I-]` [Compound J37], the “EX(nm)” value was 550(broad) nm.
In the case of `C(=Cc1ccc(OCc2ccccc2)c(OCc2ccccc2)c1)c1cc[n+](C23CC4CC(CC(C4)C2)C3)cc1.[Br-]` [Compound B12], the “EX(nm)” value is reported as 340-444 nm.
With `CN(C)c1ccc(C=Cc2cc[n+](C)c(Br)c2)cc1.[I-]` [Compound F19] the “EX(nm)” value was 440(broad) nm.
